One block for each compound: values may come before it.
Key:
[1] = system: PC-3M prostate cancer cells; details: PC-3M cells, spheroid disaggregation; cited from earlier work
[2] = system: PC-3M prostate cancer cells; details: PC-3M cells, MTT; cited from earlier work
[3] = system: PC-3M prostate cancer cells; details: mice; cited from earlier work
prostate cancer cells = details: even at 200 µM in vitro; cited from earlier work
[4] = in vivo, up to 200 mg/kg; cited from earlier work
Recombinant GSK-3β = Recombinant GSK-3β (Homo sapiens, UniProt P49841); assay: in vitro GSK-3β inhibitory assay using Tau [pS396] phosphoELISA kit
Sequence of Recombinant GSK-3β (P49841 whole entry): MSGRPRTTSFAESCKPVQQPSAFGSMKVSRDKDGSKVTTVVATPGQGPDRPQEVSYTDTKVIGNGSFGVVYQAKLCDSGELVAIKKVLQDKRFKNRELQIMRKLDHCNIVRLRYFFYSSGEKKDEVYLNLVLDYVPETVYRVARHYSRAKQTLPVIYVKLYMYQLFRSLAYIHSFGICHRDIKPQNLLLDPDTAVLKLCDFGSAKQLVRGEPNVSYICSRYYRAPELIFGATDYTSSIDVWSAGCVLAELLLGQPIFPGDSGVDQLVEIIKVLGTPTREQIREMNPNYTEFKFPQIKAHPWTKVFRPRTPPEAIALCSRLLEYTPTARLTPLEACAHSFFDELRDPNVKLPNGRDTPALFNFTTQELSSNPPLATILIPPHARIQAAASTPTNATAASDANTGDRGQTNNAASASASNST

Structure (SMILES): O=C1NC(=O)/C(=C/c2ccc(O)cc2)N1 [Compound 1, (Z)-5-(4-hydroxybenzylidene)-hydantoin]
in vitro anti-invasive properties / invasion [1]: potent | in vitro anti-growth / proliferation [2]: potent | cytotoxic effects at the test doses [3]: without apparent cytotoxic effects | formation of tumor micrometastases in distant organs [3]: inhibited | orthotopic tumor growth [3]: decreased

Structure (SMILES): CCSc1ccc(/C=C2\NC(=O)NC2=O)cc1 [Compound 2, (Z)-5-(4-(ethylthio)benzylidene)-hydantoin]
in vitro anti-invasive properties / invasion [1]: potent | in vitro anti-growth / proliferation [2]: potent | cytotoxic effects at the test doses [3]: without apparent cytotoxic effects | formation of tumor micrometastases in distant organs [3]: inhibited | orthotopic tumor growth [3]: decreased

Structure (SMILES): CCN(CC)c1ccc(/C=C2\NC(=O)NC2=O)cc1 [Compound 3]
cytotoxicity (prostate cancer cells): lack of cytotoxicity | CNS-depressant effects [4]: did not show CNS-depressant effects

IC50 (Recombinant GSK-3β): 14.1 ± 1.9 µM
Structure (SMILES): COc1cccc(/C=C2\NC(=O)NC2=O)c1 [Compound 4]
